Experimental findings from article PMC9506485, “Synthesis and Structure–Activity Relationships for the Anti-Mycobacterial Activity of 3-Phenyl-N-(Pyridin-2-ylmethyl)Pyrazolo[1,5-a]Pyrimidin-7-Amines” (Pharmaceuticals, 2022) are described below.

Series [1] has as its system Mycobacterium tuberculosis (strain H37Rv). Put plainly: MABA minimum inhibitory concentration assay (aerobic/replicating). It counts as cell-based. As to conditions: M.tb H37Rv; for MIC90: Mycobacterium tuberculosis, aerobic/replicating, 90% inhibition of growth; for anti-mycobacterial activity in words: MABA/LORA.
For series [2], the system named is VERO green monkey kidney cells. Put plainly: VERO mammalian cell toxicity assay. It counts as cell-based. Particulars: Chlorocebus sabaeus; inhibition of growth of VERO green monkey kidney epithelial cells.
Series [3] relates to Mycobacterium tuberculosis (strain H37Rv). Put plainly: LORA minimum inhibitory concentration assay (low-oxygen/non-replicating). Particulars: M.tb H37Rv, 90% inhibition of growth.

Converted amounts (≈) assume the structure as drawn.

One may read the MIC90 as an inhibitory concentration at the 90% level, which refers to growth in some studies and to a panel of isolates in others. For orientation: IC50 means the concentration needed to halve the response being measured. What is called melting point is the temperature of the solid-liquid transition. `Fc1ccc(-c2cnn3c(NCc4cc(N5CCCC5)ccn4)cc(-c4ccccc4)nc23)cc1` [Compound 64, 3-(4-Fluorophenyl)-5-phenyl-N-((4-(pyrrolidin-1-yl)pyridin-2-yl)methyl)pyrazolo[1,5-a]pyrimidin-7-amine] gave a melting point of 221 to 223 °C. Moreover, the MIC90 in series [1] amounted to 0.47 µg/mL (≈ 1.01 µM). In series [2], this compound showed an IC50 of 16 µg/mL (≈ 34.4 µM). Also, the “MIC90 LORA” value in series [3] was 0.94 µg/mL (≈ 2.02 µM).

`Cc1cccc(-c2cnn3c(NCc4ccccn4)cc(-c4ccccc4)nc23)c1` [Compound 15, 5-Phenyl-N-(pyridin-2-ylmethyl)-3-(m-tolyl)pyrazolo[1,5-a]pyrimidin-7-amine] gave a melting point of 172 to 174 °C. In addition, the MIC90 in series [1] was greater than 32 µg/mL. In addition, in series [2], the IC50 was greater than 32 µg/mL. Besides, in series [3], the “MIC90 LORA” value is recorded as 30 µg/mL (≈ 76.6 µM).

Compound `Fc1ccc(-c2cnn3c(NCc4cccc(N5CCCCC5)n4)cc(-c4ccccc4)nc23)cc1` [Compound 50, 3-(4-Fluorophenyl)-5-phenyl-N-((6-(piperidin-1-yl)pyridin-2-yl)methyl)pyrazolo[1,5-a]pyrimidin-7-amine] had a melting point of 185 to 187 °C. The MIC90 in series [1] worked out at 0.25 µg/mL (≈ 0.522 µM). Also, the IC50 in series [2] was greater than 32 µg/mL. Besides, the “MIC90 LORA” value in series [3] amounted to 1.75 µg/mL (≈ 3.66 µM).

In the case of `Cc1ccc(-c2cnn3c(NCc4ccccn4)cc(-c4ccccc4)nc23)cc1` [Compound 19, 5-Phenyl-N-(pyridin-2-ylmethyl)-3-(p-tolyl)pyrazolo[1,5-a]pyrimidin-7-amine], the melting point lay within 172 to 174 °C. Moreover, in series [1], the “anti-mycobacterial activity in words” value is “inactive” and the MIC90 is greater than 32 µg/mL. This compound came in with an IC50 in series [2] greater than 32 µg/mL. In addition, the “MIC90 LORA” value in series [3] is given as greater than 32 µg/mL.

Compound `FC(F)(F)c1cccc(-c2cnn3c(NCc4ccccn4)cc(-c4ccccc4)nc23)c1` [Compound 17, 5-Phenyl-N-(pyridin-2-ylmethyl)-3-(3-(trifluoromethyl)phenyl)pyrazolo[1,5-a]pyrimidin-7-amine] came in with a melting point of 156 to 158 °C. The MIC90 in series [1] is greater than 32 µg/mL. Moreover, the IC50 in series [2] was greater than 32 µg/mL. For the same compound, in series [3], the “MIC90 LORA” value was greater than 32 µg/mL.

Compound `Fc1ccc(-c2cnn3c(NCc4cccc(F)n4)cc(-c4ccccc4)nc23)cc1` [Compound 45, 3-(4-Fluorophenyl)-N-((6-fluoropyridin-2-yl)methyl)-5-phenylpyrazolo[1,5-a]pyrimidin-7-amine] registered a melting point of 196 to 198 °C. In series [1], this compound gave an MIC90 greater than 32 µg/mL. In addition, the 50% inhibitory concentration (IC50) in series [2] is greater than 32 µg/mL. In addition, the “MIC90 LORA” value in series [3] is greater than 32 µg/mL.

With `CN(C)CCN(C)c1ccnc(CNc2cc(-c3ccccc3)nc3c(-c4ccc(F)cc4)cnn23)c1` [Compound 67, N1-(2-(((3-(4-Fluorophenyl)-5-phenylpyrazolo[1,5-a]pyrimidin-7-yl)amino)methyl)pyridin-4-yl)-N1,N2,N2-trimethylethane-1,2-diamine], the melting point was 158 to 160 °C. Also, in series [1], the MIC90 stood at 1.7 µg/mL (≈ 3.43 µM). Moreover, in series [2], the midpoint of inhibition, the IC50, lay at 9.9 µg/mL (≈ 20 µM). Moreover, in series [3], the “MIC90 LORA” value is listed as 1.5 µg/mL (≈ 3.03 µM).

Consider `Fc1ccccc1-c1cnn2c(NCc3ccccn3)cc(-c3ccccc3)nc12` [Compound 11, 3-(2-Fluorophenyl)-5-phenyl-N-(pyridin-2-ylmethyl)pyrazolo[1,5-a]pyrimidin-7-amine], for which the melting point is 176 to 178 °C. Besides, the MIC90 in series [1] is greater than 32 µg/mL. In addition, the IC50 in series [2] was greater than 32 µg/mL. In addition, in series [3], the “MIC90 LORA” value is greater than 32 µg/mL.

Regarding `Fc1ccc(-c2cnn3c(NCc4cccc(Br)n4)cc(-c4ccccc4)nc23)cc1` [Compound 46, N-((6-Bromopyridin-2-yl)methyl)-3-(4-fluorophenyl)-5-phenylpyrazolo[1,5-a]pyrimidin-7-amine], the melting point was in the range of 160 to 161 °C. The compound further yielded an MIC90 in series [1] greater than 32 µg/mL. Moreover, the IC50 in series [2] is greater than 32 µg/mL. The “MIC90 LORA” value in series [3] is greater than 32 µg/mL.

In the case of `Fc1ccc(-c2cnn3c(NCc4ncccc4Br)cc(-c4ccccc4)nc23)cc1` [Compound 71, N-((3-Bromopyridin-2-yl)methyl)-3-(4-fluorophenyl)-5-phenylpyrazolo[1,5-a]pyrimidin-7-amine], the melting point fell in the range of 189 to 191 °C. In addition, the MIC90 in series [1] is greater than 32 µg/mL. Moreover, the IC50 in series [2] was greater than 32 µg/mL. In addition, the “MIC90 LORA” value in series [3] is listed as greater than 32 µg/mL.

Consider `CN(C)c1cccc(CNc2cc(-c3ccccc3)nc3c(-c4ccc(F)cc4)cnn23)n1` [Compound 49, N-((6-(Dimethylamino)pyridin-2-yl)methyl)-3-(4-fluorophenyl)-5-phenylpyrazolo[1,5-a]pyrimidin-7-amine], for which the melting point lay within 151 to 153 °C. In series [1], this compound came in with an MIC90 of 1.39 µg/mL (≈ 3.17 µM). The compound further gave an IC50 in series [2] greater than 32 µg/mL. The “MIC90 LORA” value in series [3] came to 0.40 µg/mL (≈ 0.912 µM).

The compound `COc1cccc(-c2cnn3c(NCc4ccccn4)cc(-c4ccccc4)nc23)c1` [Compound 16, 3-(3-Methoxyphenyl)-5-phenyl-N-(pyridin-2-ylmethyl)pyrazolo[1,5-a]pyrimidin-7-amine] had a melting point of 122 to 124 °C. Also, in series [1], the MIC90 is 7.6 µg/mL (≈ 18.7 µM). The compound further showed an IC50 in series [2] greater than 32 µg/mL. For the same compound, in series [3], the “MIC90 LORA” value was determined as 10 µg/mL (≈ 24.5 µM).

Turning to `Fc1ccc(-c2cnn3c(NCc4cc(N5CCOCC5)ccn4)cc(-c4ccccc4)nc23)cc1` [Compound 66, 3-(4-Fluorophenyl)-N-((4-morpholinopyridin-2-yl)methyl)-5-phenylpyrazolo[1,5-a]pyrimidin-7-amine], the melting point worked out at 208 °C. Moreover, the MIC90 in series [1] worked out at 0.06 µg/mL (≈ 0.125 µM). The IC50 in series [2] is greater than 32 µg/mL. In addition, in series [3], the “MIC90 LORA” value amounted to 0.98 µg/mL (≈ 2.04 µM).

Regarding `Fc1ccc(-c2cnn3c(NCc4ncccc4F)cc(-c4ccccc4)nc23)cc1` [Compound 70, 3-(4-Fluorophenyl)-N-((3-fluoropyridin-2-yl)methyl)-5-phenylpyrazolo[1,5-a]pyrimidin-7-amine], the melting point was 165 to 168 °C. In series [1], this compound yielded an MIC90 greater than 32 µg/mL. The compound further yielded a half-maximal inhibitory concentration (IC50) in series [2] greater than 32 µg/mL. Also, the “MIC90 LORA” value in series [3] is greater than 32 µg/mL.

In the case of `Fc1ccc(-c2cnn3c(NCc4ccc(N5CCCCC5)cn4)cc(-c4ccccc4)nc23)cc1` [Compound 59, 3-(4-Fluorophenyl)-5-phenyl-N-((5-(piperidin-1-yl)pyridin-2-yl)methyl)pyrazolo[1,5-a]pyrimidin-7-amine], the melting point lay within 179 to 182 °C. The MIC90 in series [1] was 0.96 µg/mL (≈ 2.01 µM). For the same compound, in series [2], the IC50 was greater than 32 µg/mL. The “MIC90 LORA” value in series [3] is on record as 0.85 µg/mL (≈ 1.78 µM).

`FC(F)(F)c1ccc(-c2cnn3c(NCc4ccccn4)cc(-c4ccccc4)nc23)cc1` [Compound 21, 5-Phenyl-N-(pyridin-2-ylmethyl)-3-(4-(trifluoromethyl)phenyl)pyrazolo[1,5-a]pyrimidin-7-amine] returned a melting point of 188 to 190 °C. Also, in series [1], the “anti-mycobacterial activity in words” value was “inactive” and the MIC90 was greater than 32 µg/mL. The compound also showed an IC50 in series [2] greater than 32 µg/mL. Besides, in series [3], the “MIC90 LORA” value is greater than 32 µg/mL.

Turning to `CN(C)c1cccnc1CNc1cc(-c2ccccc2)nc2c(-c3ccc(F)cc3)cnn12` [Compound 69, N-((3-(Dimethylamino)pyridin-2-yl)methyl)-3-(4-fluorophenyl)-5-phenylpyrazolo[1,5-a]pyrimidin-7-amine], the melting point was in the range of 167 to 170 °C. For the same compound, in series [1], the MIC90 was 1.5 µg/mL (≈ 3.42 µM). The IC50 in series [2] was greater than 32 µg/mL. Further, in series [3], the “MIC90 LORA” value amounted to 0.49 µg/mL (≈ 1.12 µM).

`Cc1cccc(CNc2cc(-c3ccccc3)nc3c(-c4ccc(F)cc4)cnn23)n1` [Compound 47, 3-(4-Fluorophenyl)-N-((6-methylpyridin-2-yl)methyl)-5-phenylpyrazolo[1,5-a]pyrimidin-7-amine]: the melting point was in the range of 177 to 180 °C. The MIC90 in series [1] is greater than 32 µg/mL. In series [2], this compound came in with an IC50 greater than 32 µg/mL. In addition, the “MIC90 LORA” value in series [3] is reported as greater than 32 µg/mL.

Take `FC(F)(F)c1ccccc1-c1cnn2c(NCc3ccccn3)cc(-c3ccccc3)nc12` [Compound 13, 5-Phenyl-N-(pyridin-2-ylmethyl)-3-(2-(trifluoromethyl)phenyl)pyrazolo[1,5-a]pyrimidin-7-amine]: the melting point lay within 166 to 168 °C. In series [1], this compound displayed an MIC90 greater than 32 µg/mL. The compound also displayed an IC50 in series [2] greater than 32 µg/mL. Besides, the “MIC90 LORA” value in series [3] is greater than 32 µg/mL.

The compound `Fc1cccc(-c2cnn3c(NCc4ccccn4)cc(-c4ccccc4)nc23)c1` [Compound 14, 3-(3-Fluorophenyl)-5-phenyl-N-(pyridin-2-ylmethyl)pyrazolo[1,5-a]pyrimidin-7-amine] yielded a melting point of 170 to 172 °C. The MIC90 in series [1] was greater than 32 µg/mL. For the same compound, the IC50 in series [2] was greater than 32 µg/mL. In addition, the “MIC90 LORA” value in series [3] is listed as greater than 32 µg/mL.

Consider `N#Cc1ccnc(CNc2cc(-c3ccccc3)nc3c(-c4ccc(F)cc4)cnn23)c1` [Compound 61, 2-(((3-(4-Fluorophenyl)-5-phenylpyrazolo[1,5-a]pyrimidin-7-yl)amino)methyl)isonicotinonitrile], for which the melting point was 233 to 236 °C. Moreover, in series [1], the “anti-mycobacterial activity in words” value was “inactive” and the MIC90 was greater than 32 µg/mL. In series [2], the IC50 is greater than 32 µg/mL. Also, the “MIC90 LORA” value in series [3] was greater than 32 µg/mL.

Take `N#Cc1cccnc1CNc1cc(-c2ccccc2)nc2c(-c3ccc(F)cc3)cnn12` [Compound 72, 2-(((3-(4-Fluorophenyl)-5-phenylpyrazolo[1,5-a]pyrimidin-7-yl)amino)methyl)nicotinonitrile]: the melting point was in the range of 241 to 244 °C. Moreover, the MIC90 in series [1] was greater than 32 µg/mL. In series [2], this compound yielded a 50% inhibitory concentration (IC50) greater than 32 µg/mL. Further, in series [3], the “MIC90 LORA” value is on record as greater than 32 µg/mL.
